Patent US20090149506A1, “INSECTICIDAL COMPOSITIONS WITH IMPROVED EFFECT” (Bayer CropScience AG, priority 2005, published 2009)

How the values were obtained:
[1] = system: cotton aphid (Aphis gossypii); assay: Aphis gossypii test (APHIGO), spray treatment of infested cotton leaves; type: in vivo; settings: 0.8 ppm, after 6 d, spray on cotton leaves (Gossypium hirsutum); 100% = all aphids killed, 0% = none killed
Protocol: Aphis gossypii Test (APHIGO)
(§1) To produce a suitable preparation of active compound, 1 part by weight of active compound is mixed with the stated amounts of solvent and emulsifier, and the concentrate is diluted with emulsifier-containing water to the desired concentration. If addition of ammonium salts or ammonium salts and penetrant is required, the appropriate amount is added by pipette after dilution of the respective finished preparation solution.
Cotton leaves (Gossypium hirsutum) which are heavily infested by the cotton aphid (Aphis gossypii) are sprayed with an active compound preparation of the desired concentration.
(§2) After the desired period of time, the kill in % is determined. 100% means that all aphids have been killed; 0% means that none of the aphids have been killed.
(§3) In this test, for example, the following embodiments of the invention show good activity: see table below

[2] = system: Green peach aphid (Myzus persicae); assay: Myzus persicae test (MYZUPE), spray treatment of infested bell pepper plants; type: in vivo; settings: 0.8 ppm, after 6 d, spray on bell pepper plants (Capsicum annuum); 100% = all aphids killed, 0% = none killed
Protocol: Myzus persicae Test (MYZUPE)
as §1
Bell pepper plants (Capsicum annuum) which are heavily infested by the Green peach aphid (Myzus persicaei) are treated by spraying with the active compound preparation of the desired concentration.
as §2, §3

CNC(=O)c1cc(Cl)cc(C)c1NC(=O)c1cc(Br)nn1-c1ncccc1Cl [Example I-1-3]
kill in % (% 6 d) [1]: 0%
kill in % (% 6 d) [2]: 0%
